Experimental data published in ChEMBL document CHEMBL1201862, “PubChem BioAssay data set” (2004).
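Values below derive from 48-hour exposures of cells grown in 96-well plates, with endpoints linearly interpolated between the two concentrations bracketing the appropriate inhibition level. At the GI50, growth is halved.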 Active and inactive are the calls of the source. Cut-off read from the data, not from the text of the source: active = GI50 up to about 1.1 µM and inactive = higher.

Legend:
Assay in all cases: DTP human tumour cell line panel, 48 h
[1] = system: A549
[2] = system: EKVX
[3] = system: SW-620
[4] = system: SR
[5] = system: COLO 205
[6] = system: T47D
[7] = system: SF-268
[8] = system: HT-29
[9] = system: OVCAR-5
[10] = system: SF-539
[11] = system: SNB-75
[12] = system: RPMI-8226
[13] = system: HCT-15
[14] = system: A498
[15] = system: K562
[16] = system: OVCAR-4
[17] = system: DU-145
[18] = system: SK-MEL-5
[19] = system: HL-60
[20] = system: SK-MEL-2

| SMILES | GI50 [1] | GI50 [2] | GI50 [3] | GI50 [4] | GI50 [5] | GI50 [6] | GI50 [7] | GI50 [8] | GI50 [9] | GI50 [10] | GI50 [11] | GI50 [12] | GI50 [13] [µM] | GI50 [14] | GI50 [15] | GI50 [16] | GI50 [17] | GI50 [18] | GI50 [19] | GI50 [20] |
| --- | --- | --- | --- | --- | --- | --- | --- | --- | --- | --- | --- | --- | --- | --- | --- | --- | --- | --- | --- | --- |
| Oc1c(Cl)ccc2cccnc12 | 3.96 µM (inactive) | 3.43 µM (inactive) | 2.53 µM (inactive) | 1.88 µM (inactive) | 4.25 µM (inactive) | 1.2 µM (inactive) | 2.72 µM (inactive) | 18.4 µM (inactive) | 5.87 µM (inactive) | 3.4 µM (inactive) | 11.6 µM (inactive) | 2.71 µM (inactive) | 0.927 | 4.81 µM (inactive) | 1.32 µM (inactive) | 3.21 µM (inactive) | 9.73 µM (inactive) | 3.42 µM (inactive) | 0.28 µM (active) |  |
| O=S(=O)(Cc1cnc(O)nc1O)Cc1cnc(O)nc1O | > 100 µM (inactive) | > 100 µM (inactive) | > 100 µM (inactive) | 37.8 µM (inactive) | > 100 µM (inactive) | > 100 µM (inactive) | > 100 µM (inactive) | > 100 µM (inactive) | > 100 µM (inactive) | > 100 µM (inactive) | > 100 µM (inactive) | > 100 µM (inactive) | > 100 | > 100 µM (inactive) | > 100 µM (inactive) | > 100 µM (inactive) | > 100 µM (inactive) | > 100 µM (inactive) |  | > 100 µM (inactive) |
| COC(=O)[C@@H]1CCCN1CCN1CCC[C@H]1C(=O)OC | > 100 µM (inactive) |  | > 100 µM (inactive) | 31.8 µM (inactive) | > 100 µM (inactive) | > 100 µM (inactive) | > 100 µM (inactive) | > 100 µM (inactive) | > 100 µM (inactive) | > 100 µM (inactive) |  | > 100 µM (inactive) | > 100 | > 100 µM (inactive) | > 100 µM (inactive) | > 100 µM (inactive) | > 100 µM (inactive) | > 100 µM (inactive) |  | > 100 µM (inactive) |
| COc1cccc2c1CCc1cc3c(N)nc(N)nc3nc1-2 | 2.45 µM (inactive) | 2.12 µM (inactive) | 3.65 µM (inactive) | 3.41 µM (inactive) | 4.02 µM (inactive) | 7.94 µM (inactive) | 6.73 µM (inactive) | 2.41 µM (inactive) | 6.92 µM (inactive) | 1.79 µM (inactive) | 5.98 µM (inactive) | 2.12 µM (inactive) | 5.21 | 9.27 µM (inactive) | 2.23 µM (inactive) | 6.22 µM (inactive) | 5.16 µM (inactive) | 3.09 µM (inactive) |  | 13.3 µM (inactive) |
| Cc1cc(NC[C@H](O)[C@H](O)[C@H](O)CO)c(Sc2cc(=O)[nH]c(=O)[nH]2)cc1C | > 62.5 µM (inactive) | > 62.5 µM (inactive) | > 62.5 µM (inactive) | > 62.5 µM (inactive) | > 62.5 µM (inactive) | > 62.5 µM (inactive) | > 62.5 µM (inactive) | > 62.5 µM (inactive) | > 62.5 µM (inactive) |  | > 62.5 µM (inactive) | > 62.5 µM (inactive) | > 62.5 | > 62.5 µM (inactive) | > 62.5 µM (inactive) | > 62.5 µM (inactive) | > 62.5 µM (inactive) | > 62.5 µM (inactive) |  | > 62.5 µM (inactive) |
| O=C(CNC(c1ccccc1)(c1ccccc1)c1ccccc1)NC1CCCCC1NC(=O)CNC(c1ccccc1)(c1ccccc1)c1ccccc1 (configuration not stated) | > 100 µM (inactive) | 2.99 µM (inactive) | > 100 µM (inactive) | > 100 µM (inactive) | > 100 µM (inactive) | > 100 µM (inactive) | 24.2 µM (inactive) | > 100 µM (inactive) | > 100 µM (inactive) | > 100 µM (inactive) |  | > 100 µM (inactive) | > 100 | > 100 µM (inactive) | > 100 µM (inactive) | > 100 µM (inactive) | > 100 µM (inactive) | > 100 µM (inactive) | > 100 µM (inactive) | > 100 µM (inactive) |
| COc1cc(-c2c(C#N)c(N)c(C#N)c3c2COc2ccccc2-3)cc(OC)c1OC | > 100 µM (inactive) | 25.6 µM (inactive) | > 100 µM (inactive) | > 74 µM (inactive) | > 100 µM (inactive) | > 46.9 µM (inactive) | 11.5 µM (inactive) | > 30.6 µM (inactive) | > 100 µM (inactive) | 5.35 µM (inactive) |  | > 22.9 µM (inactive) | > 100 | 39.3 µM (inactive) | > 60.4 µM (inactive) | > 22.8 µM (inactive) | 43.4 µM (inactive) | > 86.3 µM (inactive) | > 100 µM (inactive) | 22.6 µM (inactive) |
| Cc1cc(NS(=O)(=O)c2ccc(Nc3c4ccccc4nc4c(C(=O)NC(CO)(CO)CO)cccc34)cc2)no1 | 48.1 µM (inactive) | 73.6 µM (inactive) | 31 µM (inactive) | 26.3 µM (inactive) | 42.4 µM (inactive) | 26.5 µM (inactive) | 21.3 µM (inactive) | 38.7 µM (inactive) | 62.8 µM (inactive) |  | 8.41 µM (inactive) | 19.7 µM (inactive) | 61.7 | 47.1 µM (inactive) | 33.3 µM (inactive) | 48.8 µM (inactive) | 48.1 µM (inactive) | 32.4 µM (inactive) | 34.5 µM (inactive) | 19.4 µM (inactive) |
| CCOC(=O)c1ccc(C(=O)/C(C#N)=C2\CCCN2C)[nH]1 | > 100 µM (inactive) | > 100 µM (inactive) | > 100 µM (inactive) | > 100 µM (inactive) | > 100 µM (inactive) | > 100 µM (inactive) | > 100 µM (inactive) | > 100 µM (inactive) | > 100 µM (inactive) |  | > 100 µM (inactive) | > 100 µM (inactive) | > 100 | > 100 µM (inactive) | > 100 µM (inactive) | > 100 µM (inactive) | > 100 µM (inactive) | > 100 µM (inactive) | > 100 µM (inactive) | > 100 µM (inactive) |
| C[C@@]12C[C@@H](c3ccccc3O1)N1Cc3ccccc3CSC1=N2 |  | > 100 µM (inactive) | > 100 µM (inactive) | > 100 µM (inactive) | 35.2 µM (inactive) | 72.9 µM (inactive) | > 100 µM (inactive) | 38.3 µM (inactive) | > 100 µM (inactive) | 51.5 µM (inactive) | > 100 µM (inactive) | > 100 µM (inactive) | 37.3 | > 100 µM (inactive) | 64.9 µM (inactive) | 66.1 µM (inactive) | 69.3 µM (inactive) | 44.4 µM (inactive) |  | > 100 µM (inactive) |
| Cc1cc2c(c(/C=N/c3ccc([N+](=O)[O-])cc3)c1)OC1(C=C2)Oc2ccccc2C(=O)N1C (configuration not stated) | 28.2 µM (inactive) | 13.6 µM (inactive) | 29.1 µM (inactive) | 12.3 µM (inactive) | 20 µM (inactive) | 7.89 µM (inactive) | 18.7 µM (inactive) | 18.2 µM (inactive) | 28.6 µM (inactive) |  | 14.6 µM (inactive) | 19.3 µM (inactive) | 17.9 | 16.8 µM (inactive) | 19.2 µM (inactive) | 22.2 µM (inactive) | 22.3 µM (inactive) | 31.8 µM (inactive) | 23.2 µM (inactive) | 24.8 µM (inactive) |
| CC(C)(C)OC(=O)N(O)[C@@H]1C=C[C@H](n2cnc3c(N)ncnc32)C1 | > 100 µM (inactive) | > 100 µM (inactive) | > 100 µM (inactive) | > 100 µM (inactive) | > 100 µM (inactive) | > 100 µM (inactive) | > 100 µM (inactive) |  | > 100 µM (inactive) | > 100 µM (inactive) | 33.9 µM (inactive) | > 100 µM (inactive) | > 100 | > 100 µM (inactive) | > 100 µM (inactive) | > 100 µM (inactive) | > 100 µM (inactive) | 70.5 µM (inactive) |  | > 100 µM (inactive) |
| CCOC(=O)C(Cc1ccc(N(CCCl)CCCl)cc1)NC(=O)C(Cc1ccccc1)NC=O (configuration not stated) | 0.431 µM (active) | 0.332 µM (active) | 0.184 µM (active) | 0.00811 µM (active) | 0.197 µM (active) | 0.092 µM (active) | 0.0968 µM (active) | 0.142 µM (active) | 0.337 µM (active) | 0.139 µM (active) |  | 0.187 µM (active) | 0.29 | 0.273 µM (active) | 0.188 µM (active) | 0.0208 µM (active) | 0.139 µM (active) | 0.219 µM (active) | 0.0638 µM (active) | 0.161 µM (active) |
| CN(C)Cc1cc(C(=O)/C=C/c2ccccc2Cl)cc(CN(C)C)c1O | 14.9 µM (inactive) | 14.7 µM (inactive) | 4.86 µM (inactive) | 5.6 µM (inactive) | 4.23 µM (inactive) | > 10 µM (inactive) | 15.9 µM (inactive) | 3.13 µM (inactive) | 23.1 µM (inactive) | 15.5 µM (inactive) | 5.51 µM (inactive) | 13.8 µM (inactive) | 14.7 | 12.9 µM (inactive) | 4.79 µM (inactive) |  | 12.3 µM (inactive) | 11.8 µM (inactive) | 4.3 µM (inactive) |  |
| O=C(O)c1cc2ccccc2c(Cc2c(O)c(C(=O)O)cc3ccccc23)c1O [PAMOIC ACID] | > 100 µM (inactive) | > 100 µM (inactive) | > 100 µM (inactive) | > 100 µM (inactive) |  | > 100 µM (inactive) | > 100 µM (inactive) | > 100 µM (inactive) | > 100 µM (inactive) |  |  | > 100 µM (inactive) | > 100 | > 100 µM (inactive) | > 100 µM (inactive) | > 100 µM (inactive) | > 100 µM (inactive) | > 100 µM (inactive) | > 100 µM (inactive) | > 100 µM (inactive) |
